Laboratory results published in patent EP1246919B1, “PROGENITOR CELL PR[…] AND RELATED METHODS AND PRODUCTS” (ImClone Systems Incorporated, priority 1999, dated 2001).

What was measured:
[1] = test system: BALB/c mice; experiment: Murine 5-FU chemoprotection model; type: in vivo; conditions: 5-FU 150 mg/kg intraperitoneally
Protocol: A dose regimen was established to determine whether FRIL protects mice from death resulting from hematopoietic toxicity of […]. […] This finding was consistent with the understanding that stem cells reside in the bone marrow in predominantly a quiescent state. Bone marrow cellularity in these mice was restored after 2 weeks by the recruitment of the dormant progenitors and responsive stem cells that escaped toxicity of 5-FU. Administration of a second dose of 5-FU (also at 150 mg/kg) 3-7 days after the initial dose killed those stem cells and progenitors recruited into S-phase in response to the first treatment of 5-FU (Lerner and Harrison, supra).
In this study described below, the pretreatment dose regimen for Dl-FRIL described above (5 mg/kg x 4 days) was selected based on the requirement of treating animals with cytokines for several days prior to starting chemotherapy and because Dl-FRIL-treated mice easily tolerated doses (5 mg/kg) that were 10- to 100-fold greater than that used for cytokines. […]

[2] = test system: BALB/c mice; conditions: single dose of 5-FU (150 mg/kg); Lerner and Harrison; cited from earlier work
[3] = molecular target: T1, Dl-FRIL (Lablab purpureus, UniProt Q9ZTA9); conditions: Mo et al., Glycobiology 9:173-179, 1999; cited from earlier work
T1 sequence (Q9ZTA9 9-124 limits assumed): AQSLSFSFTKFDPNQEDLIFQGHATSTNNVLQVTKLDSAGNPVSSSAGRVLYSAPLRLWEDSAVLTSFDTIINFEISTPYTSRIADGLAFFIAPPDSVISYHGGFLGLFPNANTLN
T1 sequence (Q9ZTA9 125-272 limits assumed): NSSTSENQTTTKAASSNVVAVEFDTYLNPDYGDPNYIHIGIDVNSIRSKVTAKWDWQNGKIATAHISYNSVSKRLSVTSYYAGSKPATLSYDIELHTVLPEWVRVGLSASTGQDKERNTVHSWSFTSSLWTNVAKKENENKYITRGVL

[4] = molecular target: FLT3 receptor on FLT3-transfected 3T3 cells (murine FLT3 extracellular portion/human Fms chimera or full length human receptor, not told apart at that place); experiment: cell-based or functional assay

## O=c1[nH]cc(F)c(=O)[nH]1 [5-FU, 5-fluorouracil]
[1]
  deaths after a single dose: No mice died
[2]
  reduction of bone marrow cellularity: > 90%

## OC[C@H]1O[C@H](O[C@H]2O[C@H](CO)[C@@H](O)[C@H](O)[C@H]2O)[C@H](O)[C@@H](O)[C@@H]1O [α,α-trehalose]
[3]
  greater potency than mannose: 3.6 fold

## Pv-FRIL, mannose-binding lectin isolated from red kidney bean (Phaseolus vulgaris) extract, or purified from PHA-LCM
[4]
  Specific Activity (u/mg) in the Flt3 3T3 assay, Superdex 75 fraction (Pv-FRIL purified to near homogeneity from PHA-LCM): 244000 u/mg
